From patent US9072695B2, “Aromatase activator” (Kao Corporation, priority 2011, dated 2015)

Target: T1, aromatase (Homo sapiens, UniProt P11511)
T1 construct: host or cells: human skin fibroblasts (HDF1616)
T1 sequence (P11511 1-503): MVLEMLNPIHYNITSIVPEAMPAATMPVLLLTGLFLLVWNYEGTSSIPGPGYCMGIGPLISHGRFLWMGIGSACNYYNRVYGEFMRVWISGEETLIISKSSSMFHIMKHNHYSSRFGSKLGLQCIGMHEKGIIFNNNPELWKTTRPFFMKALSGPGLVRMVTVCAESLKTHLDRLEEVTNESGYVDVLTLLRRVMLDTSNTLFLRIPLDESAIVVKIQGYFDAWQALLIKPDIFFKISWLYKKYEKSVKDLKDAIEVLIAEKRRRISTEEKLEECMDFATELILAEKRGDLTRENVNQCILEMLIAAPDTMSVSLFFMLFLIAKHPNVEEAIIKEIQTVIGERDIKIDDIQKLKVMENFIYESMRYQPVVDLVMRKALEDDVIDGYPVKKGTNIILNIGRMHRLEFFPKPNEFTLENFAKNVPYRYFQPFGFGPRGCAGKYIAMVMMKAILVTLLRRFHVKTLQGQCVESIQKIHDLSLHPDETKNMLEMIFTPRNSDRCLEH
Assay: Aromatase activation effect in fibroblasts derived from human skin (3H2O release from 1β-3H-androst-4-ene-3,17-dione)
Assay type: cell-based
Conditions: for Aromatase activity: fibroblasts (HDF1616) derived from human skin, amount added 4.65 × 10^−6 mol/L, control 6.85; for Aromatase activation effect (in words): fibroblasts derived from human skin, 4.65×10^−6 mol/L, compared with control (no addition)
Protocol: The aromatase activation effect of the compounds 1 and 2 prepared in Production Example 1 was examined with reference to Stampfer M J, Willett W C, Colditz G A, Rosner B, Speizer F E and Hennenkens C H, N. Engl. J. Med., 313, 1044-1049, 1985.
Fibroblasts (HDF1616: KURABO) derived from human skin were planted in a 24-well cell culture plate (FALCON) to culture until it became confluent. The medium was removed and 900 μL of a serum-free medium was added to the wells to culture for 24 hr. At this time, the compound 1 or 2 prepared using an aqueous 95% ethanol solution such that the final concentration was 4.65×10^−6 mol/L was added to the wells. Also, a sample in which an aqueous 95% ethanol solution was added and a sample (no addition) in which no material was added were prepared as controls.
1β-3H-androst-4-ene-3,17-dione (Perkin Elmer) which was the substrate of aromatase was added in the serum-free medium such that the concentration was 37 kBq/100 μL and added in an amount of 100 μL in each well to culture for 24 hr. 900 μL of the culture product was taken, in a 2 mL tube from one well and 1 mL of CHCl3 was added to the cultured product, which was then stirred vigorously. The cultured product was centrifuged at 15,000 rpm for 10 min to transfer the upper layer (water layer) to another tube. 200 μL of Charcoal/Dextran (which is one obtained by suspending 5 g of Charcoal, dextran coated (SIGMA) in 50 mL of H2O) was added to the upper layer, which was fairly mixed and then allowed to stand at ambient temperature for 30 min. The mixture was centrifuged at 15,000 rpm for 10 min and the supernatant was transferred to a new tube. 1 mL of […] was added to the supernatant, which was then vigorously stirred and centrifuged at 15,000 rpm for 10 min and the upper layer (water layer) was added to 5 mL of Ultima Gold (Perkin Elmer) to measure the radioactivity of ^3H by a liquid scintillation counter (Perkin Elmer Tricarb 2550). The same serum-free medium containing no cell was incubated for the same hours without adding a drug, followed by the same procedures to measure the radioactivity of ^3H and the radioactivity was subtracted from the above measured radioactivity.
1β-3H-androst-4-ene-3,17-dione releases ^3H2O by an aromatase reaction and is converted into estrogen having no radioactivity. In this experimental method, the radioactivity of released ^3H2O is detected, showing that the higher the radioactivity is, the higher the aromatase activity is.

| Aromatase activity [fmol/day/well] | Aromatase activation effect (in words) | Structure (SMILES) |
| --- | --- | --- |
| 21.68 | activated aromatase existing in cells | CC1=CC[C@H](C)C(C)(C)[C@@H]1CC/C(C)=C/CC[C@@]1(C)[C@H](CCCO)/C(=C(/C)C=O)CC[C@]1(C)O [Compound 1] |
| 22.34 | activated aromatase existing in cells | C=C1CC[C@H](C)C(C)(C)[C@@H]1CC/C(C)=C/CC[C@@]1(C)[C@H](CCCO)/C(=C(/C)C=O)CC[C@]1(C)O [Compound 2] |
